Test results as given in the supplement of paper PMC3937590.

Legend:
Test in all cases: -log10 GI50 (growth inhibition 50%) (-log10(M)); higher = more potent growth inhibition
[1] = tested on: HCC1937
Method in brief: (§1)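 Breast cancer cell lines were treated with each compound for 72 hours at nine doses in 1:5 serial dilution, in triplicate, and luminescence was read against a time-zero plate. A Gompertz curve was fitted to the dose-response data by nonlinear least squares to obtain GI50, the molar concentration giving the set level of growth inhibition, which is reported as its negative logarithm. The logarithm is base 10, and values equal to the top dose carry a < qualifier.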

[2] = tested on: HBL100
Method in brief: as §1

[3] = tested on: BT483
Method in brief: as §1

[4] = tested on: HCC202
Method in brief: as §1

[5] = tested on: MCF10A
Method in brief: as §1

[6] = tested on: HCC1428
Method in brief: as §1

[7] = tested on: HCC1954
Method in brief: as §1

[8] = tested on: MDAMB175VII
Method in brief: as §1

[9] = tested on: MX1
Method in brief: as §1

[10] = tested on: T47D
Method in brief: as §1

[11] = tested on: MDAMB134VI
Method in brief: as §1

SMILES | -log10 GI50 [1] | -log10 GI50 [2] | -log10 GI50 [3] | -log10 GI50 [4] | -log10 GI50 [5] | -log10 GI50 [6] | -log10 GI50 [7] | -log10 GI50 [8] | -log10 GI50 [9] | -log10 GI50 [10] | -log10 GI50 [11]
CNC(=O)c1c(F)cccc1Nc1nc(Nc2cc3c(cc2OC)CCN3C(=O)CN(C)C)nc2[nH]ccc12 | 4.71 | 4.76 | 5.49 | 5.05 | 5.45 | 5.79 | 5.06 | 5.29 | 5.29 | 5.02 | 4.96
COc1cc2c(Nc3ccc(NC(=O)c4ccccc4)cc3)ncnc2cc1OCCCN1CCOCC1 | 5.23 | – | 4.56 | – | < 4.48 | 4.56 | < 4.48 | 5.26 | 6.35 | 4.94 | 5.03
COc1cccc(-c2cc(=O)c3ccccc3o2)c1N | 4.5 | – | 4.52 | – | < 4.3 | < 4 | < 4.3 | 4.85 | 4.39 | < 4.3 | < 4
COc1ncc(-c2ccc3nccc(-c4ccnnc4)c3c2)cc1NS(=O)(=O)c1ccc(F)cc1F | 7.57 | – | 8.94 | 9.25 | 8.1 | 7.57 | 8.04 | 8.73 | 8.39 | 8.45 | 7.97
Nc1[nH]nc2nnc(-c3c(-c4ccccc4)nn4ccccc34)cc12 | < 4 | – | 4.45 | – | < 4.48 | 4.56 | < 4.48 | 5.08 | < 4.48 | < 4.48 | < 4
O=C(O)c1ccc(-c2c[nH]c3ncc(-c4ccccc4)cc23)cc1C1CCCC1 | < 4.48 | – | < 4.48 | – | 5.55 | < 4.18 | < 4.48 | < 4.18 | 4.45 | < 4.48 | < 4.18
O=C1C(Cl)=C(NCCN2CCOCC2)C(=O)c2ncccc21 | 6.07 | – | 6.19 | – | 5.65 | 5.44 | 5.22 | 5.3 | 6.17 | 5.19 | 5.22
O=C1NC(=O)/C(=C/c2ccc(-c3ccc(F)cc3O)o2)S1 | < 4.18 | – | 4.77 | – | < 4.18 | 5.34 | 5.46 | 5.29 | 4.66 | 5.25 | 4.48
Oc1cc(-c2nc(-c3ccccc3)[nH]c2-c2ccncc2)ccc1Cl | 4.84 | – | 4.84 | – | 4.92 | 4.97 | < 4.48 | 5.09 | 4.98 | < 4.48 | 4.85
Cn1cnc2c(F)c(Nc3ccc(Br)cc3Cl)c(C(=O)NOCCO)cc21 [AZD6244] | < 4.3 | – | < 4.3 | – | 6.71 | < 4.3 | 5.84 | 5.59 | 6.34 | < 4.3 | 6.2
O=c1[nH]c2ccccc2n1C1CCN(Cc2ccc(-c3[nH]c4cc5ncnc5cc4nc3-c3ccccc3)cc2)CC1 [Akt inhibitor VIII] | 5 | – | 6.2 | – | 5.34 | 5.35 | 5.08 | 5.75 | 5.45 | 5.78 | 5.05
Cn1c(=O)n(-c2ccc(C(C)(C)C#N)cc2)c2c3cc(-c4cnc5ccccc5c4)ccc3ncc21 [BEZ235] | < 4.48 | – | 5.87 | – | 7.26 | 5.51 | 7.28 | 6.46 | < 4.48 | 6.55 | < 4.48
CN(C)C/C=C/C(=O)Nc1cc2c(Nc3ccc(F)c(Cl)c3)ncnc2cc1O[C@H]1CCOC1 [BIBW2992] | 5.68 | – | 5.78 | – | 7.49 | 5.76 | 6.91 | 8.35 | 6.58 | – | 5.44
O=c1cc(-c2ccccc2)oc2cc(O)c(O)c(O)c12 [Baicalein] | 4.46 | – | 4.44 | 4.41 | 4.71 | 4.41 | < 3.78 | 3.96 | 4.66 | 4.52 | 4.07
CC(C)C[C@H](NC(=O)[C@H](Cc1ccccc1)NC(=O)c1cnccn1)B(O)O [Bortezomib] | 8.1 | 7.35 | 7.44 | 8.14 | 6.64 | 7.28 | 8.13 | 8.3 | 8.06 | 8.02 | 8.08
COc1cc(Nc2c(C#N)cnc3cc(OCCCN4CCN(C)CC4)c(OC)cc23)c(Cl)cc1Cl [Bosutinib] | 5.84 | – | 5.43 | – | 5.85 | 5.43 | 5.92 | 6.07 | 6.38 | – | < 4
C#Cc1cccc(Nc2ncnc3cc(OCCOC)c(OCCOC)cc23)c1 [Erlotinib] | 4.41 | < 4.18 | 4.78 | 5.57 | 5.97 | 4.75 | 5.55 | 5.52 | 5.16 | < 4.18 | < 4.18
COc1cc([C@@H]2c3cc4c(cc3[C@@H](O[C@@H]3O[C@@H]5CO[C@@H](C)O[C@H]5[C@H](O)[C@H]3O)[C@H]3COC(=O)[C@H]23)OCO4)cc(OC)c1O [Etoposide] | 5.34 | 5.67 | 5.37 | 6.03 | 5.43 | 4.47 | 6.01 | 4.19 | 6.34 | 5.99 | 5.61
CSCC[C@H](NC(=O)[C@H](Cc1ccccc1)NC[C@@H](NC[C@@H](N)CS)C(C)C)C(=O)O [FTase inhibitor I] | < 4.48 | – | < 4.48 | – | < 4.48 | < 4.48 | < 4.48 | < 4.48 | < 4.48 | < 4.48 | < 4.48
O=C1c2ccccc2-[n+]2ccc3c([nH]c4ccccc43)c21 [Fascaplysin] | 6.41 | 6.26 | 7.18 | 7.37 | 6.43 | 7.43 | 6.57 | 6.68 | 6.53 | 6.34 | 6.65

SMILES | -log10 GI50 [1] | -log10 GI50 [2] | -log10 GI50 [3] | -log10 GI50 [4] | -log10 GI50 [5] | -log10 GI50 [6] | -log10 GI50 [7] | -log10 GI50 [8] | -log10 GI50 [9] | -log10 GI50 [10] | -log10 GI50 [11]
O=c1[nH]c(=O)n([C@H]2C[C@H](O)[C@@H](CO)O2)cc1F [Floxuridine] | 3.37 | – | 4.15 | – | 4.86 | 4.04 | 3.99 | 4.69 | 2.84 | 3.48 | 3.2
Cc1cncc2cccc(S(=O)(=O)N3CCCN(C(=O)CN)C[C@@H]3C)c12 [Glycyl H1152] | < 4.18 | – | – | – | 5.28 | < 4.18 | < 4.48 | < 4.18 | 5.96 | 4.82 | 5.9
CC(C(C)N1CC(=O)NC(=O)C1)N1CC(=O)NC(=O)C1 (configuration not stated) [ICRF-193] | < 4.3 | – | < 4.3 | – | 7.07 | < 4.3 | 4.82 | < 4.3 | 5.95 | < 4.48 | 4.32
Cc1ccc(NC(=O)c2ccc(CN3CCN(C)CC3)cc2)cc1Nc1nccc(-c2cccnc2)n1 [Imatinib] | 4.69 | 4.62 | 3.82 | 5.81 | 4.36 | 4.8 | 5.04 | 5.01 | 4.65 | 4.79 | 4.47
Cc1ccc(C(=O)N(CCCN)[C@@H](c2nc3cc(Cl)ccc3c(=O)n2Cc2ccccc2)C(C)C)cc1 [Ispinesib] | 6.56 | 7.52 | 6.08 | 8.12 | 7.4 | 5.37 | 7.52 | 5.84 | 7.92 | 7.08 | 7.36
C/C(=C\c1csc(C)n1)[C@@H]1C[C@@H]2O[C@]2(C)CCC[C@H](C)[C@H](O)[C@@H](C)C(=O)C(C)(C)[C@@H](O)CC(=O)N1 [Ixabepilone] | 6.76 | – | 5.27 | 6.37 | 8.1 | 7.23 | 8.71 | 7.03 | 8.53 | 8.26 | 9
C[C@]12O[C@H](C[C@]1(O)CO)n1c3ccccc3c3c4c(c5c6ccccc6n2c5c31)CNC4=O [Lestaurtinib] | 6.21 | – | 6.21 | – | 6.26 | 6.3 | 5.31 | 6.09 | 7.17 | 5.25 | 6.33
CC(C)C[C@@H](C=O)NC(=O)[C@H](CC(C)C)NC(=O)[C@H](CC(C)C)NC(=O)OCc1ccccc1 [MG-132] | 6.82 | – | 6.81 | – | 7.21 | 6.46 | – | 6.66 | 6.88 | 6.97 | 6.63
NS(=O)(=O)OC[C@@H]1C[C@@H](n2ccc3c(N[C@H]4CCc5ccccc54)ncnc32)C[C@@H]1O [MLN4924] | 5.58 | – | 5.53 | – | 6.31 | 6.94 | 5.35 | 6.64 | 5.7 | 6.93 | 7.06
CN(Cc1cnc2nc(N)nc(N)c2n1)c1ccc(C(=O)N[C@@H](CCC(=O)O)C(=O)O)cc1 [Methotrexate] | < 3.48 | < 3.48 | 3.63 | 7.69 | 7.39 | < 3.48 | 8.07 | < 3.48 | 7.82 | < 3.48 | < 3.48
NS(=O)(=O)c1ccc(Nc2nc(OCC3CCCCC3)c3[nH]cnc3n2)cc1 [NU6102] | 4.27 | – | – | – | 5.32 | 4.87 | 4.34 | 4.28 | 5.47 | 4.82 | 4.74
CC[C@H](CO)Nc1nc(NCc2ccccc2O)c2ncn(C(C)C)c2n1 [Olomoucine II] | 5.2 | – | 5.24 | – | 5.51 | 5.29 | 4.95 | 5.14 | 5.24 | 5.18 | 5.23
Nc1nc2[nH]cc(CCc3ccc(C(=O)N[C@@H](CCC(=O)O)C(=O)O)cc3)c2c(=O)[nH]1 [Pemetrexed] | 3.17 | – | < 2.53 | 5.11 | < 2.53 | < 2.53 | < 2.53 | 8.1 | < 2.53 | < 2.53 | < 2.53
CNC(=O)c1cc(Oc2ccc(NC(=O)Nc3ccc(Cl)c(C(F)(F)F)c3)cc2)ccn1 [Sorafenib] | 3.76 | 4.33 | 4.92 | 4.14 | 4.31 | 4.34 | 4.29 | 4.46 | – | 4.59 | 4.54
N#Cc1c(-c2ccccc2)cc(-c2cc(Br)ccc2O)[nH]c1=O [TCS PIM-11] | < 3.88 | – | < 3.88 | – | 4.57 | 4.09 | 4.52 | < 3.88 | 4.73 | < 4.18 | < 3.88
CO[C@H]1C[C@@H]2CC[C@@H](C)[C@@](O)(O2)C(=O)C(=O)N2CCCC[C@H]2C(=O)O[C@H]([C@H](C)C[C@@H]2CC[C@@H](OC(=O)C(C)(CO)CO)[C@H](OC)C2)CC(=O)[C@H](C)/C=C(\C)[C@@H](O)[C@@H](OC)C(=O)[C@H](C)C[C@H](C)/C=C/C=C/C=C/1C [Temsirolimus] | 6.36 | – | 6.57 | – | 6.38 | 5.25 | 6.66 | 4.66 | 5.45 | 5.85 | 6.89
CC(/C=C/C(=O)NO)=C\[C@@H](C)C(=O)c1ccc(N(C)C)cc1 [Trichostatin A] | 4.82 | – | 5 | 6.4 | 4.82 | 5.73 | 4.96 | 5.3 | 4.79 | 5.46 | 5.2
Cc1cc(Nc2cc(N3CCN(C)CC3)nc(Sc3ccc(NC(=O)C4CC4)cc3)n2)n[nH]1 [VX-680] | 5.1 | – | 5.44 | – | 6.04 | 5.11 | 5.32 | 4.72 | 6.81 | 5.03 | 6.03
CCCC(CCC)C(=O)O [Valproic acid] | 2.56 | – | 3.01 | – | 2.97 | 3.13 | 2.52 | 2.96 | 3.45 | 2.53 | 3.12
O=C(CCCCCCC(=O)Nc1ccccc1)NO [Vorinostat] | – | – | 4.23 | 5.03 | 3.68 | 4.42 | 3.95 | 4.29 | 4.06 | 3.97 | 4.4
